# US10317393B2, “Alkynyl sugar analogs for labeling and visualization of glycoconjugates in cells” (Academia Sinica, priority 2007, dated 2019)
# Tests used:
# Jurkat cells = test: Cell growth analysis after treatment with sugar analogs (cell numbers counted); format: cell-based, human
# Protocol: FIGS. 1A, 1B, 1C and 1D show analysis of cells labeled with Fuc analogs. […] Jurkat cells were grown in the presence of 200 micromolar each Fuc analog for 3 days before cell numbers were counted. The data represent the percentage of treated cells vs. untreated cells (n=4).
# It is also disclosed how treatment with exogenous Fuc analog affects cell growth rate. […] In contrast, the addition of 200 micromolar azido Fuc 2 inhibits cell growth considerably, by 65% when compared with the untreated cells. […] Such toxicity may lead to global change in expression, therefore a nontoxic probe is preferable for accurate probing of glycoconjugate expression.
# Jurkat cells were cultivated (2×10^6/10 ml) in RPMI medium 1640 supplemented with 10% FCS and various concentrations of peracetylated alkynyl sugars 1, 2, or 4 or native sugars 3 or 5, for 1-3 days at 37° C. Cells were then harvested, washed with 0.1% FCS/PBS, and resuspended (10^6 cells) in 100 microliters of click reaction solution (0.1 mM biotin probe 6 or fluorogenic probe 7/0.1 mM Tris-thiazoleamine catalyst/0.1 mM CuSO4/0.5 mM sodium ascorbate, in PBS). The reaction was incubated at room temperature for 30 min, and then the cells were washed twice with 0.1% FCS/PBS. Cells treated with biotin probe 6 were subsequently stained with fluorescein-conjugated streptavidin (0.5 microgram per sample in 50 microliters of 1% FCS/PBS) for 30 min at 4° C., and washed three times with 1% FCS/PBS. Data were acquired by BD LSR II with FACSDiva software, and were analyzed by CellQuestPro software (BD Biosciences). Detection of fluorescent adduct with probe 7 was monitored with a 408 nm laser and a 440/40 bandpass filter for excitation and emission, respectively.
# Hep3B cells = test: Confocal microscopy of fluorescently labeled glycoconjugates; format: cell-based, human; settings: 200 micromolar Fuc or 25 micromolar ManNAc analogs, 3 days; probe 6 or 7
# Protocol: (§1) One exemplary implementation of the disclosure provides a method to visualize the localization of glycoconjugates using alkynyl sugar tagging. To visualize the localization of glycoconjugates tagged with alkynyl sugars, adherent cells are grown on slides in the presence or absence of derivatized alkynyl sugars. After a 3-day-incubation, cells attached to the slides are fixed, permeabilized, and labeled with either biotin probe 6 or fluorogenic probe 7 for fluorescent signal analysis with confocal microscopy (FIGS. 4, 5, 10A, 10B and 11). For comparison, samples are also stained with wheat germ agglutinin (WGA, a Golgi marker) and Hoechst 33342 (marker for cell nuclei).
# (§2) Human hepatocellular carcinoma cells (Hep3B) or breast adenocarcinoma cells (MCF-7) were seeded onto six-well plates (3×10^5/2 ml per well) containing glass coverslips, and were cultivated in 10% FCS/DMEM or 10% FCS/RPMI medium 1640. […]
# MCF-7 cells = test: as above; format: cell-based, human; settings: 200 micromolar Fuc or 25 micromolar ManNAc analogs, 3 days; probe 6 or 7
# Protocol: as §1, §2
# H. pylori = test: Labeling and detection of fucosylated glycoconjugates in H. pylori (immunoprecipitation, SDS-PAGE, protein blot); format: cell-based, Helicobacter pylori
# Protocol: Representative H. pylori strains isolated from human gastric biopsy specimens, including gastritis (HS), duodenal ulcer (HD), gastric ulcer (HU) and gastric cancer (HC), were subjected to MOE: all the strains were grown on CDC agar plate supplemented with 200 micromolar derivatized alkynyl Fuc 1 for two days under micro-aerobic atmosphere (5% O2, 15% CO2, 80% N2). […] Immunoprecipitates were then analyzed by SDS-PAGE and stained for visualization. […]
# Protein extracts were prepared in lysis buffer (1% NP-40, 150 mM NaCl, 100 mM sodium phosphate pH 7.5, 1×EDTA-free protease inhibitor cocktail) and labeled with biotin probe 6 (protein 1 mg/ml with 0.1 mM azido biotin 6/0.1 mM Tris-thiazoleamine catalyst/1 mM CuSO4/2 mM sodium ascorbate in lysis buffer) via cycloaddition at room temperature for 1 h. […] Immunoprecipitates were then analyzed by SDS-PAGE and stained for visualization. […]
# Detection of CagA on protein blots: Protein extracted from control or alkynyl Fuc 1 analog-treated HC samples were subjected to cycloaddition labeling to label with biotin probe (protein 1 mg/ml with 0.1 mM azido biotin 6/0.1 mM Tris-thiazoleamine catalyst/1 mM CuSO4/2 mM sodium ascorbate in lysis buffer), followed by immunoprecipitation with anti-CagA antibody (Santa Cruz). The derivatized alkynyl Fuc tags/biotin labeling on CagA protein were detected by peroxidase-conjugated streptavidin on protein blot.
substance,measurement,setting,value
"1,2,3,4-tetraacetyl alkynyl fucose [alkynyl Fuc 1]",number of cells after 3 days versus cells grown without exogenous Fuc,"Jurkat cells; 200 micromolar, 3 days",similar
same,toxicity to cells (summary statement),Jurkat cells; at levels required for efficient labeling,much less toxic
same,labeling signal by confocal microscopy,Hep3B cells,strong punctate-labeling signal
same,labeling signal by confocal microscopy,MCF-7 cells,strong punctate-labeling signal
same,tagged fucosyl proteins isolated by anti-biotin immunoprecipitation,"H. pylori; 200 micromolar, two days, strains HS, HD, HU, HC",several proteins were detected
same,biotinylated Fuc tags on CagA protein (protein blot),"H. pylori; HC strain, anti-CagA immunoprecipitation",specific signal is only detected in MOE-tagged HC strain
